# Where two headings read alike, the source gives them in different places.
# Assays:
# [1] = system: coxsackie virus A-9; assay: in vivo efficacy in coxsackie virus A-9 mouse infection model
# [2] = system: enteroviruses; assay: microbe, parasite or virus in culture; format: cell-based; settings: Enterovirus, read-out: MIC80
# [3] = system: echovirus-9; assay: in vivo efficacy in echovirus-9 mouse infection model
# [4] = system: Polio 2; assay: microbe, parasite or virus in culture; format: cell-based, poliovirus; settings: Enterovirus C, HeLa, read-out: Polio 2 MIC
# [5] = system: poliovirus, type 2, MEF strain; assay: animal or person; format: in vivo, white Swiss mice; settings: Enterovirus C, in Mus musculus, po, 336 h, read-out: Survivors Day 14 Post Infection
# [6] = blood plasma concentration in dogs after oral administration; format: in vivo; settings: dog, beagle dogs, fasted, oral 25 mg/kg in corn oil, up to six hours
# Description: The blood plasma concentrations of the compounds of the invention were measured in beagle dogs by the following procedure: Animals ranging in weight from 8.5 to 11.5 kg were fasted overnight prior to oral administration of 25 mg/kg of the test compound dissolved in corn oil (125 mg/ml) and contained in gelatin capsules. Blood samples were collected at selected time intervals up to six hours post-medication and analyzed by standard chromatographic procedures to determine the mean maximum concentration of the test compound in micrograms per milliliter [Mean Cmax, μg/ml].
# [7] = system: human rhinovirus (HRV) serotypes; assay: microbe, parasite or virus in culture; format: cell-based; settings: for MIC50: read-out: Rhinovirus MIC50
Compound,"ED50 ([1]; Mus musculus, po, read-out: PD50) [mg/kg]","oral activity in coxsackie virus A-9 infections ([1]; mouse infection model, oral)",IC (MIC80 of serotype panel) [2] [µg/mL],oral activity in echovirus-9 infections [3],MIC [4] [µg/mL],responders at 50 mg/kg [5] [%],responders at 100 mg/kg [5] [%],responders at 200 mg/kg [5] [%],Cmax [6] [ng/mL],IC (MIC80 of serotype panel) ([7]; read-out: MIC80) [µg/mL],MIC50 [7] [µg/mL],IC (MIC80 of serotype panel) ([7]; read-out: Rhinovirus MIC80) [µg/mL],responders at 77 mg/kg [5] [%]
"Cc1cc(CCCCCOc2c(Cl)cc(C3=NCCO3)cc2Cl)on1 [5-{5-[2,6-Dichloro-4-(4,5-dihydro-2-oxazolyl)phenoxyl]-pentyl}-3-methylisoxazole]",2.5,potent oral activity,1.6,potent oral activity,0.59,10,25,30,1570 ± 350,0.23,0.07,0.126,–
"Cc1cc(CCCCCOc2c(Cl)cc(-c3nc(C)c(C)o3)cc2Cl)on1 [119(c), 5-{5-[2,6-Dichloro-4-(4,5-dimethyl-2-oxazolyl)phenoxy]pentyl}-3-methylisoxazole]",–,–,–,–,–,–,–,–,2130 ± 480,–,0.32,0.53,–
"Cc1cc(CCCCCCCOc2ccc(C3=NCCO3)cc2)on1 [Example 1(c), 5-{7-[4-(4,5-Dihydro-2-oxazolyl)phenoxy]heptyl}-3-methylisoxazole]",–,–,–,–,0.04,70,90,–,–,–,1.7,99,–
"Cc1cc(CCCCCOc2ccc(C3=NCCO3)cc2)on1 [Example 2, 5-{5-[4-(4,5-Dihydro-2-oxazolyl)phenoxy]pentyl}-3-methylisoxazole]",–,–,–,–,0.6,–,–,–,–,–,0.38,2.2,85
"Cc1cc(CCCCCOc2c(C)cc(C3=NCCO3)cc2C)on1 [Example 58, 5-{5-[4-(4,5-Dihydro-2-oxazolyl)-2,6-dimethylphenoxy]pentyl}-3-methylisoxazole]",–,–,–,–,3.1,–,–,–,4260 ± 470,–,0.15,0.43,–
"Cc1cc(CCCCCCOc2c(Cl)cc(C3=NCCO3)cc2Cl)on1 [Example 106, 5-{6-[2,6-Dichloro-4-(4,5-dihydro-2-oxazolyl)phenoxy]hexyl}-3-methylisoxazole]",–,–,–,–,0.58,–,–,–,1530 ± 150,–,0.18,0.41,–
"Cc1cc(CCCCCOc2c(Cl)cc(C3=NC(C)CO3)cc2Cl)on1 (stereo not shown) [Example 107, 5-{5-[2,6-Dichloro-4-(4,5-dihydro-4-methyl-2-oxazolyl)phenoxy]pentyl}-3-methylisoxazole]",–,–,–,–,4.6,–,–,–,1530 ± 140,–,0.12,0.37,–
"Cc1cc(CCCCC(C)Oc2c(Cl)cc(C3=NCCO3)cc2Cl)on1 (stereo not shown) [Example 109, 5-{5-[2,6-Dichloro-4-(4,5-dihydro-2-oxazolyl)phenoxy]hexyl}-3-methylisoxazole]",–,–,–,–,2.9,–,–,–,2110 ± 610,–,0.16,0.89,–

# — US4843087A (priority 1986, dated 1989)
